In patent US20230339970A1, “CASEIN KINASE 1 DELTA MODULATORS” (priority 2020, published 2023):

Tests used:
[1] = target: T1, human recombinant GST cleaved CSNK1D (Homo sapiens, UniProt P48730); test: Purified Enzyme Assay (ADP-Glo CSNK1D Kinase Assay); assay type: biochemical; conditions: 2 nM CSNK1D; peptide substrate 150 μM; ATP 20 μM; 45 minutes at room temperature
T1 construct: GST (cleaved yes); purchased University of Dundee clone DU 19064
In short: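 Percent activity derived from ADP-Glo quantification of ADP produced. Reactions: compound dose-response with human recombinant GST-cleaved CSNK1D, ATP and substrate peptide PLSRTL-pS-VASLPGL, incubated 45 min at room temperature.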

human CSNK1D = target: T2, human CSNK1D (Homo sapiens, UniProt P48730); test: Whole Cell nBRET CSNK1D Binding Assay; conditions: living CHO cells stably expressing human CSNK1D tagged with nanoluciferase; NanoBret tracer 130 nM; 2 hours at 37 C
T2 construct: expressed in transfected cells
T2 sequence (P48730 whole entry): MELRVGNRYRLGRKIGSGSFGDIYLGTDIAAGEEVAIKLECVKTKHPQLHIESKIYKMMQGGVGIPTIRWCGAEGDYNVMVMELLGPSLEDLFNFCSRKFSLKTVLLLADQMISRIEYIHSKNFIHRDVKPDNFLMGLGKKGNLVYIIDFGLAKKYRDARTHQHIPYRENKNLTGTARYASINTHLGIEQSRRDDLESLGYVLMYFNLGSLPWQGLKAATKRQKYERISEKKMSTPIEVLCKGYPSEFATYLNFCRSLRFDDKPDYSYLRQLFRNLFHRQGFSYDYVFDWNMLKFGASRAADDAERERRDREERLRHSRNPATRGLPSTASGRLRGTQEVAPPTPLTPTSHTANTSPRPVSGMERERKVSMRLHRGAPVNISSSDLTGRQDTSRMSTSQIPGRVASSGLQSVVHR

T1 sequence (P48730 whole entry): as above

| Structure (SMILES) | IC50 [1] | IC50 (human CSNK1D) |
| --- | --- | --- |
| COC1(C)COCc2c(-c3ccnc4[nH]ncc34)c(-c3ccc(F)cn3)nn2C1 (single isomer, unassigned) [Example 486, (*R)-2-(5-Fluoropyridin-2-yl)-7-methoxy-7-methyl-3-(1H-pyrazolo[3,4-b]pyridin-4-yl)-7,8-dihydro-4H,6H-pyrazolo[5,1-c][1,4]oxazepine] | 763 nM | > 10000 nM |
| C[C@@H]1[C@@H](C)OCc2c(-c3ccnc4[nH]ncc34)c(-c3ccc(F)cn3)nn21 (stereo in doubt) [Example 118, (6*R,7*R)-2-(5-Fluoropyridin-2-yl)-6,7-dimethyl-3-(1H-pyrazolo[3,4-b]pyridin-4-yl)-6,7-dihydro-4H-pyrazolo[5,1-c][1,4]oxazine] | 49 nM | 1160 nM |
| C[C@@H]1OCc2c(-c3ccnc4[nH]ncc34)c(-c3ccc(F)cn3)nn2[C@H]1C (stereo in doubt) [Example 119, (6*S,7*S)-2-(5-Fluoropyridin-2-yl)-6,7-dimethyl-3-(1H-pyrazolo[3,4-b]pyridin-4-yl)-6,7-dihydro-4H-pyrazolo[5,1-c][1,4]oxazine] | 32 nM | 751 nM |
| Fc1ccc(-c2nn3c(c2-c2ccnc4[nH]ncc24)CC[C@H]2C[C@H]23)cc1 (stereo in doubt) [Example 339, (5a*S,6a*R)-2-(4-Fluorophenyl)-3-(1H-pyrazolo[3,4-b]pyridin-4-yl)-5,5a,6,6a-tetrahydro-4H-cyclopropa[e]pyrazolo[1,5-a]pyridine] | 1 nM | 7 nM |
| Fc1ccc(-c2nn3c(c2-c2ccnc4[nH]ncc24)CC[C@@H]2C[C@@H]23)cc1 (stereo in doubt) [Example 340, (5a*R,6a*S)-2-(4-Fluorophenyl)-3-(1H-pyrazolo[3,4-b]pyridin-4-yl)-5,5a,6,6a-tetrahydro-4H-cyclopropa[e]pyrazolo[1,5-a]pyridine] | 5 nM | 39 nM |
| CC(=O)Nc1cc(-c2c(-c3ccc(F)cn3)nn3c2CC[C@@H]2C[C@@H]23)ccn1 (stereo in doubt) [Example 341, N-(4-((5a*R,6a*S)-2-(5-Fluoropyridin-2-yl)-5,5a,6,6a-tetrahydro-4H-cyclopropa[e]pyrazolo[1,5-a]pyridin-3-yl)pyridin-2-yl)acetamide] | 2 nM | 24 nM |
| CC(=O)Nc1cc(-c2c(-c3ccc(F)cn3)nn3c2CC[C@H]2C[C@H]23)ccn1 (stereo in doubt) [Example 342, N-(4-((5a*S,6a*R)-2-(5-Fluoropyridin-2-yl)-5,5a,6,6a-tetrahydro-4H-cyclopropa[e]pyrazolo[1,5-a]pyridin-3-yl)pyridin-2-yl)acetamide] | 20 nM | 454 nM |
| CC(=O)Nc1cc(-c2c(-c3ccc(F)cc3)nn3c2CC[C@@H]2[C@H]3C2(F)F)ccn1 (stereo in doubt) [Example 349, N-(4-((5a*R,6a*S-6,6-Difluoro-2-(4-fluorophenyl)-5,5a,6,6a-tetrahydro-4H-cyclopropa[e]pyrazolo[1,5-a]pyridin-3-yl)pyridin-2-yl)acetamide] | 8 nM | 74 nM |
| CC(=O)Nc1cc(-c2c(-c3ccc(F)cc3)nn3c2CC[C@H]2[C@@H]3C2(F)F)ccn1 (stereo in doubt) [Example 350, N-(4-((5a*S,6a*R)-6,6-Difluoro-2-(4-fluorophenyl)-5,5a,6,6a-tetrahydro-4H-cyclopropa[e]pyrazolo[1,5-a]pyridin-3-yl)pyridin-2-yl)acetamide] | 1 nM | 1 nM |
| CC(=O)Nc1cc(-c2c(-c3ccc(F)cn3)nn3c2CC[C@H]2[C@@H]3C2(F)F)ccn1 (stereo in doubt) [Example 351, N-(4-((5a*S,6a*R)-6,6-Difluoro-2-(5-fluoropyridin-2-yl)-5,5a,6,6a-tetrahydro-4H-cyclopropa[e]pyrazolo[1,5-a]pyridin-3-yl)pyridin-2-yl)acetamide] | 2 nM | 20 nM |
| CC(=O)Nc1cc(-c2c(-c3ccc(F)cn3)nn3c2CC[C@@H]2[C@H]3C2(F)F)ccn1 (stereo in doubt) [Example 352, N-(4-((5a*R,6a*S)-6,6-Difluoro-2-(5-fluoropyridin-2-yl)-5,5a,6,6a-tetrahydro-4H-cyclopropa[e]pyrazolo[1,5-a]pyridin-3-yl)pyridin-2-yl)acetamide] | 50 nM | 1300 nM |
| Fc1ccc(-c2nn3c(c2-c2ccn4nccc4c2)CC[C@H]2[C@@H]3C2(F)F)cc1 (stereo in doubt) [Example 353, (5a*S,6a*R)-6,6-Difluoro-2-(4-fluorophenyl)-3-(pyrazolo[1,5-a]pyridin-4-yl)-5,5a,6,6a-tetrahydro-4H-cyclopropa[e]pyrazolo[1,5-a]pyridine] | 1120 nM | 3830 nM |
| Fc1ccc(-c2nn3c(c2-c2ccn4nccc4c2)CC[C@@H]2[C@H]3C2(F)F)cc1 (stereo in doubt) [Example 354, (5a*R,6a*S)-6,6-difluoro-2-(4-fluorophenyl)-3-(pyrazolo[1,5-a]pyridin-4-yl)-5,5a,6,6a-tetrahydro-4H-cyclopropa[e]pyrazolo[1,5-a]pyridine] | 18 nM | 71 nM |
| Fc1ccc(-c2nn3c(c2-c2ccnc4[nH]ncc24)CC[C@H]2[C@@H]3C2(F)F)cc1 (stereo in doubt) [Example 355, (5a*S,6a*R)-6,6-Difluoro-2-(4-fluorophenyl)-3-(1H-pyrazolo[3,4-b]pyridin-4-yl)-5,5a,6,6a-tetrahydro-4H-cyclopropa[e]pyrazolo[1,5-a]pyridine] | 9 nM | 27 nM |
| Fc1ccc(-c2nn3c(c2-c2ccnc4[nH]ncc24)CC[C@@H]2[C@H]3C2(F)F)cc1 (stereo in doubt) [Example 356, (5a*R,6a*S-6,6-Difluoro-2-(4-fluorophenyl)-3-(1H-pyrazolo[3,4-b]pyridin-4-yl)-5,5a,6,6a-tetrahydro-4H-cyclopropa[e]pyrazolo[1,5-a]pyridine] | 1 nM | 2 nM |
| Fc1ccc(-c2nn3c(c2-c2ccnc4[nH]ncc24)C[C@@H]2[C@H](C3)C2(F)F)cc1 (stereo in doubt) [Example 362, (4a*R,5a*R)-5,5-Difluoro-2-(4-fluorophenyl)-3-(1H-pyrazolo[3,4-b]pyridin-4-yl)-4a,5,5a,6-tetrahydro-4H-cyclopropa[d]pyrazolo[1,5-a]pyridine] | 1 nM | 3 nM |
| Fc1ccc(-c2nn3c(c2-c2ccnc4[nH]ncc24)C[C@H]2[C@@H](C3)C2(F)F)cc1 (stereo in doubt) [Example 363, (4a*S,5a*S)-5,5-Difluoro-2-(4-fluorophenyl)-3-(1H-pyrazolo[3,4-b]pyridin-4-yl)-4a,5,5a,6-tetrahydro-4H-cyclopropa[d]pyrazolo[1,5-a]pyridine] | 60 nM | 1410 nM |
| Fc1ccc(-c2nn3c(c2-c2c(F)cnc4[nH]ncc24)OC[C@@H]2C[C@@H]2C3)nc1 (stereo in doubt) [Example 480, (5a*R,6a*S)-3-(5-Fluoro-1H-pyrazolo[3,4-b]pyridin-4-yl)-2-(5-fluoropyridin-2-yl)-5a,6,6a,7-tetrahydro-5H-cyclopropa[e]pyrazolo[5,1-b][1,3]oxazepine] | 10 nM | 228 nM |
| Fc1ccc(-c2nn3c(c2-c2c(F)cnc4[nH]ncc24)OC[C@H]2C[C@H]2C3)nc1 (stereo in doubt) [Example 481, (5a*S,6a*R)-3-(5-Fluoro-1H-pyrazolo[3,4-b]pyridin-4-yl)-2-(5-fluoropyridin-2-yl)-5a,6,6a,7-tetrahydro-5H-cyclopropa[e]pyrazolo[5,1-b][1,3]oxazepine] | 6 nM | 65 nM |
| Cc1nc2[nH]ncc2c(-c2c(-c3ccc(F)cn3)nn3c2OC[C@H]2C[C@H]2C3)c1F (stereo in doubt) [Example 482, (5a*R,6a*S)-3-(5-Fluoro-6-methyl-1H-pyrazolo[3,4-b]pyridin-4-yl)-2-(5-fluoropyridin-2-yl)-5a,6,6a,7-tetrahydro-5H-cyclopropa[e]pyrazolo[5,1-b][1,3]oxazepine] | 8 nM | 79 nM |
| Cc1nc2[nH]ncc2c(-c2c(-c3ccc(F)cn3)nn3c2OC[C@@H]2C[C@@H]2C3)c1F (stereo in doubt) [Example 483, (5a*S,6a*R)-3-(5-Fluoro-6-methyl-1H-pyrazolo[3,4-b]pyridin-4-yl)-2-(5-fluoropyridin-2-yl)-5a,6,6a,7-tetrahydro-5H-cyclopropa[e]pyrazolo[5,1-b][1,3]oxazepine] | 5 nM | 48 nM |
| Fc1ccc(-c2nn3c(c2-c2ccnc4[nH]ccc24)COCC3)nc1 [Example 1, 2-(5-Fluoro-2-pyridyl)-3-(1H-pyrrolo[2,3-b]pyridin-4-yl)-6,7-dihydro-4H-pyrazolo[5,1-c][1,4]oxazine] | 10 nM | 81 nM |
| Cc1cc(-c2c(-c3ccc(F)cn3)nn3c2CNCC3)c2cn[nH]c2n1 [Example 2, 4-[2-(5-Fluoro-2-pyridyl)-4,5,6,7-tetrahydropyrazolo[1,5-a]pyrazin-3-yl]-6-methyl-1H-pyrazolo[3,4-b]pyridine] | 19 nM | 528 nM |
| Fc1ccc(-c2nn3c(c2-c2ccnc4[nH]ccc24)CCCC3)nc1 [Example 3, 4-[2-(5-Fluoro-2-pyridyl)-4,5,6,7-tetrahydropyrazolo[1,5-a]pyridin-3-yl]-1H-pyrrolo[2,3-b]pyridine] | 8 nM | 41 nM |
| Fc1ccc(-c2nn3c(c2-c2ccnc4[nH]ncc24)CCC3)cc1 [Example 4, 4-(2-(4-Fluorophenyl)-5,6-dihydro-4H-pyrrolo[1,2-b]pyrazol-3-yl)-1H-pyrazolo[3,4-b]pyridine] | 1 nM | 22 nM |
